According to ChEMBL document CHEMBL1201862, “PubChem BioAssay data set” (2004):
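Protocol summary: plate cells (96-well), add compound at 5 concentrations, incubate 48 h, interpolate endpoints linearly. At the GI50, growth is halved.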 Calls of active or inactive are those of the source. No stated cut-off is given here; in the data, active = GI50 up to about 1.1 µM and inactive = higher.

How the values were obtained:
Assay in all cases: NCI tumour cell line growth inhibition, 48 h
IGROV-1 = test system: IGROV-1
OVCAR-8 = test system: OVCAR-8
CCRF-CEM = test system: CCRF-CEM
SNB-19 = test system: SNB-19
Hs-578T = test system: Hs-578T
HCT-116 = test system: HCT-116
MOLT-4 = test system: MOLT-4
SN12C = test system: SN12C
TK-10 = test system: TK-10
OVCAR-3 = test system: OVCAR-3
SK-MEL-5 = test system: SK-MEL-5
SF-295 = test system: SF-295
SW-620 = test system: SW-620
K562 = test system: K562
SK-MEL-28 = test system: SK-MEL-28
NCI-H522 = test system: NCI-H522
M14 = test system: M14
MCF7 = test system: MCF7
HCC 2998 = test system: HCC 2998
EKVX = test system: EKVX
HOP-62 = test system: HOP-62
NCI/ADR-RES = test system: NCI/ADR-RES
PC-3 = test system: PC-3
HOP-92 = test system: HOP-92
RPMI-8226 = test system: RPMI-8226
U-251 = test system: U-251
RXF 393 = test system: RXF 393
KM12 = test system: KM12
A549 = test system: A549
HL-60 = test system: HL-60
SF-539 = test system: SF-539
NCI-H23 = test system: NCI-H23
DU-145 = test system: DU-145
ACHN = test system: ACHN
SK-OV-3 = test system: SK-OV-3
SNB-75 = test system: SNB-75
UACC-62 = test system: UACC-62
HCT-15 = test system: HCT-15
BT-549 = test system: BT-549
T47D = test system: T47D
MDA-N = test system: MDA-N
CAKI-1 = test system: CAKI-1
786-0 = test system: 786-0
UO-31 = test system: UO-31
SF-268 = test system: SF-268
MDA-MB-231 = test system: MDA-MB-231
LOX IMVI = test system: LOX IMVI
SR = test system: SR
MDA-MB-435 = test system: MDA-MB-435
OVCAR-4 = test system: OVCAR-4
HT-29 = test system: HT-29
COLO 205 = test system: COLO 205
NCI-H226 = test system: NCI-H226
Malme-3M = test system: Malme-3M
NCI-H460 = test system: NCI-H460
A498 = test system: A498
UACC-257 = test system: UACC-257

Measured: GI50

CCCCN(C(=O)c1ccccc1)C1CCC(=O)c2[nH]c3ccccc3c21 (configuration not stated)
24.5 µM: HCT-15
inactive: IGROV-1 46.3 µM | OVCAR-8 45.8 µM | CCRF-CEM 29.6 µM | SNB-19 43.6 µM | Hs-578T 16.9 µM | HCT-116 24.7 µM | MOLT-4 32.8 µM | SN12C 57.1 µM | TK-10 37.5 µM | OVCAR-3 64.7 µM | SK-MEL-5 18.7 µM | SF-295 30.5 µM | SW-620 59.4 µM | K562 49.7 µM | SK-MEL-28 90.2 µM | NCI-H522 38.7 µM | M14 67.1 µM | MCF7 27.4 µM | HCC 2998 34.4 µM | EKVX 51.6 µM | HOP-62 40.4 µM | NCI/ADR-RES 30.8 µM | PC-3 20.7 µM | HOP-92 22.1 µM | RPMI-8226 19.4 µM | U-251 29.1 µM | RXF 393 25.8 µM | KM12 79.6 µM | A549 34.4 µM | HL-60 8.75 µM | SF-539 31.5 µM | NCI-H23 62.4 µM | DU-145 75 µM | ACHN 31.3 µM | SK-OV-3 61.1 µM | UACC-62 25 µM | BT-549 36.9 µM | T47D 26.9 µM | MDA-N 50 µM | CAKI-1 20.8 µM | 786-0 42.1 µM | UO-31 66.5 µM | SF-268 45.4 µM | MDA-MB-231 23.7 µM | LOX IMVI 43.1 µM | SR 11.2 µM | MDA-MB-435 23.1 µM | OVCAR-4 26.7 µM | HT-29 20.5 µM | COLO 205 21 µM | NCI-H226 29 µM | Malme-3M 55 µM | NCI-H460 35.4 µM | A498 29 µM | UACC-257 54 µM
active: SNB-75 0.481 µM
